From patent publication EP2739628B1
Like-named read-outs stand apart in the source and are kept apart here.

Conditions: rcm bond

COC(=O)Nc1ccc2c(c1)N[C@@H](C(=O)OC)CC=CC[C@H](NC(=O)OC(C)(C)C)c1nc-2cn1COCC[Si](C)(C)C
ring closure, yield of all isomers (from C=CC[C@H](NC(=O)OC(C)(C)C)c1nc(-c2ccc(NC(=O)OC)cc2N[C@H](CC=C)C(=O)OC)cn1COCC[Si](C)(C)C, Grubbs II, DCE, 40.0 mM, 120.0 °C, 0.33 h): 23%

COC(=O)Nc1ccc2c(c1)NC(=O)[C@H](C)C=CC[C@H](NC(=O)OC(C)(C)C)c1nc-2cn1COCC[Si](C)(C)C
ring closure, yield of all isomers (from C=CC[C@H](NC(=O)OC(C)(C)C)c1nc(-c2ccc(NC(=O)OC)cc2NC(=O)[C@H](C)C=C)cn1COCC[Si](C)(C)C, Grubbs 2nd generation catalyst (with pTsOH monohydrate), dichloromethane, 9.73 mM, 40.0 °C, 21.5 h): 41%

CCOC(=O)C1C/C=C/C[C@H](NC(=O)OC(C)(C)C)c2cc(ccn2)-c2ccc(NC(=O)OC)cc2N1 (stereo partly shown)
ring closure, yield of all isomers (from C=CCC(Nc1cc(NC(=O)OC)ccc1-c1ccnc([C@H](CC=C)NC(=O)OC(C)(C)C)c1)C(=O)OCC, Grubbs II): 47%

COC(=O)Nc1ccc2c(c1)NC(=O)C/C=C/C[C@H](NC(=O)OC(C)(C)C)c1cc-2ccn1
ring closure, yield of all isomers (from C=CCC(=O)Nc1cc(NC(=O)OC)ccc1-c1ccnc([C@H](CC=C)NC(=O)OC(C)(C)C)c1, Grubbs II, DCM, 3.99 mM, 45.0 °C, 19.0 h): 26%
